Assay results as given in article PMC10482691, “LTP induction by structural rather than enzymatic functions of CaMKII” (Nature, 2023).
Several values for one entry are separate records, joined by “and”; a condition that tells them apart may be missing. Identical values can stand only once.

Key:
[1] = tested on: GFP–paCaMKII F89G in hippocampal neurons; test: paCaMKII F89G photoactivation: dendritic spine growth (sLTP); assay type: cell-based
[2] = tested on: GFP–paCaMKII T286A in hippocampal neurons; test: paCaMKII T286A photoactivation: dendritic spine growth (sLTP); assay type: cell-based

Row | Structure (SMILES) | spine growth after photoactivation of paCaMKII F89G ([1]; NM-PP1 10 μM) | dendritic spine growth after photoactivation (sheet 6f) ([1]; paCaMKII F89G + NMPP1, individual neurons) | spine growth after photoactivation of paCaMKII T286A ([2]; AS283 10 μM) | dendritic spine growth after photoactivation (sheet 6c) ([2]; paCaMKII T286A + AS283, individual neurons)
1 | CC(C)(C)n1nc(Cc2cccc3ccccc23)c2c(N)ncnc21 [NM-PP1] | spine growth | 172.556 and 35.7596 and 20.47 and 19.9369 and 44.1548 and -7.983 and 10.7769 and 28.3493 and 0.9564 and -9.357 and -3.692 and 75.8167 and 167.851 and -2.441 and -1.61 and -17.673 and 155.504 and 81.1061 | – | –
2 | NCCNc1cccc(-c2ccnc3[nH]c4ccccc4c23)c1 [AS283] | – | – | spine growth | 17.1219 and 31.801 and 10.2332 and 47.3616 and 15.5579 and 21.0974 and 9.7214 and 4.0121 and 26.179
